Common to all, as to type: cell-based
The test system of experiment [1] is murine M2 macrophage. In words: Macrophage surface protein MERTK expression by flow cytometry. The following applies: versus control, LPS and IL-4 groups, p<0.05, FIG. 15. On the procedure: (§1) Embodiment 1 is prepared by the steps described above, isolate monocytes from murine bone marrow and use M-CSF to induce differentiation of M2 macrophage, and then use baicalin to induce M2C macrophage polarization. In comparison 1, incubate murine M2 macrophage in RPMI 1640 (10% FCS) containing LPS (lipopolysaccharide, 1 μg/ml, Sigma-Aldrich) for 2 hours. In comparison 2, incubate murine M2 macrophage in medium containing IL-4 ([…] Guidance System, Cambridge, UK) for 24 hours. The control group of M2 macrophage is incubated in RPMI 1640 (10% FCS) without any drugs. The conditions are shown below in chart 2.
In this example, experiment was performed to further test whether M2C treated by baicalin can express MERTK protein. Using flow cytometry to evaluate macrophage surface protein MERTK expression level in embodiment 1, comparison 1, 2, and the control group is cultured in RPMI 1640 (10% FCS) without any drugs. Result was shown in FIG. 14, after fluorescence staining, fluorescence MERTK marker binding was detected in approximately 80% of cells in every group. […] M2C cells treated with baicalin can promote macrophages to express MERTK protein, and the efficacy is greater than LPS and IL-4.
Background: Flow cytometry measures light scatter and fluorescence of single cells or particles in a stream.

Experiment [2] deals with murine M2 macrophage. Kind of experiment: Phagocytosis of FITC-Latex beads with PE-anti-MERTK staining (flow cytometry, fluorescence microscopy). As for the experimental part:
In this example, experiment was performed to evaluate the effect of baicalin induced differentiated […] macrophages in promoting phagocytosis. Treatment conditions of drugs in each group is listed in chart 2, and control group is cultured in RPMI1640 (10% FCS) without any drugs. After treatment, collect 5×10^5 treated cells respectively and add 50 μl FITC-Latex beads (Phagocytosis assay kit (IgG FITC), Cayman Chemical, USA.) to perform phagocytosis experiment for 24 hours, and then use PE-anti-MERTK antibody to mark the cells and observe the fluorescence expression with flow cytometry.

In experiment [3] the test system is murine M2 macrophage. In words: mRNA expression level of each gene by real time PCR (qPCR) after induced differentiation. The following applies: for IL-6 mRNA expression level: conditions of chart 2, FIG. 6. On the procedure:
as §1
After induced differentiation is complete, use flow cytometry to analyse the macrophage phenotype, in the meantime, also use real time PCR (qPCR) to observe mRNA expression level of each gene.
TNF-Alpha: M1 macrophage expression gene IRF5: M1 macrophage polarization promoting gene IRF4: M2 macrophage polarization promoting gene ARG1 (Arginase-1): M2a macrophage molecular marker IL-10: cytokine that promotes M2 macrophage polarization and inhibits inflammation IL-6: cytokine that promotes inflammation and also serves as M2b macrophage molecular marker. MERTK: a gene that serves as M2C macrophage molecular marker and promotes phagocytosis PTX3: a gene that serves as M2C macrophage molecular marker and promotes phagocytosis VEGF-A: vascular endothelial growth factor PD-L1: a gene that regulates T cell and promotes tissue autoimmune tolerance
Background: Real-time PCR tracks product formation cycle by cycle.

[4] abbreviates: conditions of chart 2, P<0.05, FIG. 7 and FIG. 8.
Setting [5] is: conditions of chart 2, p<0.05, FIG. 5.

On to `O=C(O)[C@H]1O[C@@H](Oc2cc3oc(-c4ccccc4)cc(=O)c3c(O)c2O)[C@H](O)[C@@H](O)[C@@H]1O` [Baicalin], for which the “average MERTK expression level in one single cell (mean fluorescence intensity)” value in experiment [1] is “two times higher”. Besides, the “percentage of cells that phagocytosed the beads” value in experiment [2] (FITC-Latex beads 24 hours, FIG. 16) was “approximately 30%”. In experiment [2] (FITC-Latex beads 24 hours, PE-anti-MERTK, FIG. 17), the “percentage of cells that phagocytosed beads and also express MERTK protein” value was found to be 30%. Also, in experiment [2] (fluorescence microscope, PE-MERTK, FIG. 18), the “MERTK fluorescence distribution of cells after phagocytosing FITC-Latex beads” value is given as “express MERTK on cell membrane”. Further, the “IL-6 mRNA expression level” value in experiment [3] is “significantly lower than comparison 1”. In experiment [3] (listed as embodiment 1), the “IL-6 mRNA expression level” value is given as “low”. In experiment [3] (conditions of chart 2, P<0.05, FIG. 6), the “IL-10 mRNA expression level” value was “significantly higher than comparison 1 and 2”. Besides, in experiment [3] (setting [4]), the “MERTK mRNA expression level” value is “significantly higher than control, comparison 1 and 2”; the “PD-L1 mRNA expression level” value was “significantly higher than control, comparison 1 and 2”; the “PTX3 mRNA expression level” value is “significantly higher than control, comparison 1 and 2”; the “VEGF-A mRNA expression level” value was “significantly higher than control, comparison 1 and 2”. In addition, in experiment [3] (setting [5]), the “IRF4 mRNA expression level” value is given as “significantly lower than comparison 2”, the “IRF5 mRNA expression level” value is given as “significantly lower than comparison 1” and the “TNF-Alpha mRNA expression level” value was “significantly lower than comparison 1”. Moreover, the “ARG1 mRNA expression level” value in experiment [3] (conditions of chart 2, p<0.05, FIG. 6) is reported as “significantly lower than comparison 2”.
